Measured values taken from PubChem BioAssay (NCI).
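Test compounds were applied to cells in 96-well plates for 48 hours at 5 doses. At the GI50, growth is halved. TGI: total growth inhibition.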

What was measured:
Experiment in all cases: NCI anticancer screen, dose series, 48 h
HOP-92 NSCLC = test system: HOP-92 NSCLC
UACC-257 melanoma = test system: UACC-257 melanoma
KM12 colon = test system: KM12 colon
RPMI-8226 leukemia = test system: RPMI-8226 leukemia
SK-MEL-28 melanoma = test system: SK-MEL-28 melanoma
MDA-N = test system: MDA-N
MALME-3M melanoma = test system: MALME-3M melanoma
HL-60(TB) leukemia = test system: HL-60(TB) leukemia
SR leukemia = test system: SR leukemia

Structure (SMILES): COc1ccc(N2C(=O)CC(=O)N(C(=O)COc3ccc(OCC(=O)N4C(=O)CC(=O)N(c5ccc(OC)cc5)C4=S)cc3)C2=S)cc1
- TGI (HOP-92 NSCLC): > 100 µM
- TGI (UACC-257 melanoma): > 100 µM
- TGI (KM12 colon): 32.6 µM
- TGI (RPMI-8226 leukemia): > 100 µM
- TGI (SK-MEL-28 melanoma): > 100 µM
- TGI (MDA-N): > 100 µM
- TGI (MALME-3M melanoma): > 100 µM

Structure (SMILES): O=C(N/N=C/C=C/c1ccc([N+](=O)[O-])o1)c1cc2ccccc2cc1O
- GI50 (HL-60(TB) leukemia): 1.43 µM
- TGI (HL-60(TB) leukemia): 11.3 µM
- GI50 (HOP-92 NSCLC): 2.08 µM
- TGI (HOP-92 NSCLC): 5.52 µM
- GI50 (UACC-257 melanoma): 1.38 µM
- TGI (UACC-257 melanoma): 4.21 µM
- GI50 (KM12 colon): 1.42 µM
- TGI (KM12 colon): 2.85 µM
- GI50 (RPMI-8226 leukemia): 1.53 µM
- TGI (RPMI-8226 leukemia): 6.83 µM
- GI50 (SK-MEL-28 melanoma): 0.697 µM
- TGI (SK-MEL-28 melanoma): 2.4 µM
- GI50 (MALME-3M melanoma): 1.5 µM
- TGI (MALME-3M melanoma): 3.4 µM
- GI50 (SR leukemia): 0.308 µM
- TGI (SR leukemia): 7.69 µM

Structure (SMILES): OC1(c2ccccc2)CCN(Cc2c[nH]c3ccccc23)CC1
- TGI (HL-60(TB) leukemia): > 100 µM
- TGI (HOP-92 NSCLC): > 100 µM
- TGI (UACC-257 melanoma): 40.4 µM
- TGI (KM12 colon): > 100 µM
- TGI (RPMI-8226 leukemia): > 100 µM
- TGI (SK-MEL-28 melanoma): 56.9 µM
- TGI (MDA-N): > 100 µM
- TGI (MALME-3M melanoma): 52.4 µM

Structure (SMILES): Cc1ccc2c(=O)cc(-c3ccc(Cl)s3)[nH]c2n1
- TGI (HL-60(TB) leukemia): 0.989 µM
- TGI (HOP-92 NSCLC): > 100 µM
- TGI (UACC-257 melanoma): > 100 µM
- TGI (KM12 colon): > 100 µM
- TGI (RPMI-8226 leukemia): 4.08 µM
- TGI (SK-MEL-28 melanoma): > 100 µM
- TGI (MALME-3M melanoma): > 100 µM
- TGI (SR leukemia): > 76.2 µM

Structure (SMILES): C/C=C/c1cc(=O)c([C@@H]2OC(=O)c3cc(OC)cc(OC)c32)co1
- TGI (HL-60(TB) leukemia): > 100 µM
- TGI (HOP-92 NSCLC): > 100 µM
- TGI (UACC-257 melanoma): > 100 µM
- TGI (KM12 colon): > 100 µM
- TGI (RPMI-8226 leukemia): > 100 µM
- TGI (SK-MEL-28 melanoma): > 100 µM
- TGI (SR leukemia): > 100 µM

Structure (SMILES): Cc1cc(C)nc(SC2=C(Nc3ccc(C)c(Cl)c3)C(=O)N(Cc3ccccc3)C2=O)n1
- GI50 (HOP-92 NSCLC): > 160 µM
- TGI (HOP-92 NSCLC): > 160 µM
- GI50 (KM12 colon): > 160 µM
- TGI (KM12 colon): > 160 µM
- GI50 (SK-MEL-28 melanoma): > 160 µM
- TGI (SK-MEL-28 melanoma): > 160 µM
- GI50 (MALME-3M melanoma): > 160 µM
- TGI (MALME-3M melanoma): > 160 µM

Structure (SMILES): CCOC(=O)c1nc2ccc(C(F)(F)F)cc2nc1Oc1cc(OC)c(OC)c(OC)c1
- TGI (HL-60(TB) leukemia): > 100 µM
- TGI (HOP-92 NSCLC): > 100 µM
- TGI (UACC-257 melanoma): > 100 µM
- TGI (KM12 colon): > 100 µM
- TGI (RPMI-8226 leukemia): > 100 µM
- TGI (SK-MEL-28 melanoma): > 100 µM
- TGI (MDA-N): > 100 µM
- TGI (MALME-3M melanoma): > 100 µM

Structure (SMILES): COc1cc([C@@H]2c3cc4c(cc3[C@@H](c3c(O)cc(O)c5c3O[C@H](c3ccc(O)c(O)c3)[C@@H](O)C5)[C@H]3COC(=O)[C@H]23)OCO4)cc(OC)c1OC
- TGI (HL-60(TB) leukemia): > 100 µM
- TGI (HOP-92 NSCLC): > 100 µM
- TGI (UACC-257 melanoma): 3.81 µM
- TGI (KM12 colon): 3.33 µM
- TGI (RPMI-8226 leukemia): 59.4 µM
- TGI (SK-MEL-28 melanoma): > 100 µM
- TGI (MALME-3M melanoma): > 100 µM

Structure (SMILES): CC(=C(c1ccccc1)c1ccccc1)N1C(=O)CC(=O)N1C
- TGI (HOP-92 NSCLC): > 100 µM
- TGI (UACC-257 melanoma): > 100 µM
- TGI (KM12 colon): > 100 µM
- TGI (RPMI-8226 leukemia): > 100 µM
- TGI (SK-MEL-28 melanoma): > 100 µM
- TGI (MDA-N): > 100 µM

Structure (SMILES): COc1ccc(C2=Nc3cc(C)c(C)cc3NC(c3ccccc3)C2)cc1 (stereo not given)
- TGI (HL-60(TB) leukemia): > 100 µM
- TGI (HOP-92 NSCLC): > 100 µM
- TGI (UACC-257 melanoma): > 100 µM
- TGI (KM12 colon): > 100 µM
- TGI (RPMI-8226 leukemia): > 100 µM
- TGI (SK-MEL-28 melanoma): > 100 µM
- TGI (MALME-3M melanoma): > 100 µM
- TGI (SR leukemia): 54.5 µM

Structure (SMILES): CCNCCCn1c2c(c3ccc(Cl)cc3c1=O)C(=O)c1cc(OC)cnc1-2
- GI50 (HOP-92 NSCLC): 3.01 µM
- TGI (HOP-92 NSCLC): 27.2 µM
- GI50 (UACC-257 melanoma): 14.5 µM
- TGI (UACC-257 melanoma): 32.9 µM
- GI50 (KM12 colon): 0.755 µM
- TGI (KM12 colon): 2.26 µM
- GI50 (RPMI-8226 leukemia): 1.25 µM
- TGI (RPMI-8226 leukemia): 3.65 µM
- GI50 (SK-MEL-28 melanoma): 1.92 µM
- TGI (SK-MEL-28 melanoma): 4.54 µM
- GI50 (MALME-3M melanoma): 1.37 µM
- TGI (MALME-3M melanoma): 3.12 µM

Structure (SMILES): OCC(O)C(O)C(O)C(O)c1nc2ccc(Cl)cc2[nH]1 (stereo not given)
- TGI (HL-60(TB) leukemia): 4.89 µM
- TGI (HOP-92 NSCLC): > 100 µM
- TGI (UACC-257 melanoma): > 100 µM
- TGI (KM12 colon): > 100 µM
- TGI (RPMI-8226 leukemia): > 100 µM
- TGI (SK-MEL-28 melanoma): > 100 µM
- TGI (MDA-N): > 100 µM
- TGI (MALME-3M melanoma): > 100 µM

Structure (SMILES): O=S(Nc1ccccc1)c1ccc(N2CCOCC2)cc1 (stereo not given)
- TGI (HL-60(TB) leukemia): > 100 µM
- TGI (UACC-257 melanoma): > 100 µM
- TGI (KM12 colon): > 100 µM
- TGI (RPMI-8226 leukemia): > 100 µM
- TGI (SK-MEL-28 melanoma): > 100 µM
- TGI (MALME-3M melanoma): > 100 µM
- TGI (SR leukemia): > 100 µM

Structure (SMILES): ClCCCc1ccccc1C1=NCCc2ccccc21
- TGI (HL-60(TB) leukemia): > 100 µM
- TGI (HOP-92 NSCLC): > 100 µM
- TGI (UACC-257 melanoma): > 100 µM
- TGI (KM12 colon): > 100 µM
- TGI (RPMI-8226 leukemia): 23.3 µM
- TGI (SK-MEL-28 melanoma): > 100 µM

Structure (SMILES): Cc1ccc(S(=O)(=O)n2c3ccc(Br)cc3c3nc4ccccc4nc32)cc1
- TGI (HOP-92 NSCLC): > 100 µM
- TGI (UACC-257 melanoma): > 100 µM
- TGI (KM12 colon): > 100 µM
- TGI (RPMI-8226 leukemia): > 100 µM
- TGI (SK-MEL-28 melanoma): > 100 µM
- TGI (MDA-N): > 100 µM

Structure (SMILES): Cc1cc(F)ccc1S(=O)(=O)Nc1cc(-c2c(O)ccc3ccccc23)c(O)c2ccccc12
- GI50 (HL-60(TB) leukemia): 2.6 µM
- TGI (HL-60(TB) leukemia): 6.19 µM
- GI50 (HOP-92 NSCLC): 0.292 µM
- TGI (HOP-92 NSCLC): 2.82 µM
- GI50 (UACC-257 melanoma): 2.6 µM
- TGI (UACC-257 melanoma): 9.33 µM
- GI50 (KM12 colon): 1.93 µM
- TGI (KM12 colon): 4.02 µM
- GI50 (RPMI-8226 leukemia): 2.89 µM
- TGI (RPMI-8226 leukemia): 24 µM
- GI50 (SK-MEL-28 melanoma): 3.12 µM
- TGI (SK-MEL-28 melanoma): 9.74 µM
- GI50 (MALME-3M melanoma): 3.27 µM
- TGI (MALME-3M melanoma): 12.1 µM
- GI50 (SR leukemia): 3.21 µM
- TGI (SR leukemia): 19.3 µM

Structure (SMILES): CCOP(=O)(/C=C\n1cc(C)c(=O)[nH]c1=O)OCC
- TGI (HL-60(TB) leukemia): > 100 µM
- TGI (UACC-257 melanoma): > 100 µM
- TGI (KM12 colon): > 100 µM
- TGI (RPMI-8226 leukemia): > 100 µM
- TGI (SK-MEL-28 melanoma): > 100 µM
- TGI (MDA-N): > 100 µM

Structure (SMILES): N#CC1(C#N)NC(c2cccs2)C(C#N)(C#N)NC1c1cccs1 (stereo not given)
- TGI (HL-60(TB) leukemia): 41.3 µM
- TGI (HOP-92 NSCLC): 78.7 µM
- TGI (UACC-257 melanoma): > 100 µM
- TGI (KM12 colon): > 100 µM
- TGI (RPMI-8226 leukemia): 73.1 µM
- TGI (SK-MEL-28 melanoma): > 100 µM
- TGI (MALME-3M melanoma): > 100 µM
- TGI (SR leukemia): 77.3 µM

Structure (SMILES): O=c1cc(N2CCCC2)[nH]c(=O)n1Cc1ccccc1
- TGI (HL-60(TB) leukemia): > 100 µM
- TGI (HOP-92 NSCLC): > 100 µM
- TGI (UACC-257 melanoma): > 100 µM
- TGI (KM12 colon): > 100 µM
- TGI (RPMI-8226 leukemia): > 100 µM
- TGI (SK-MEL-28 melanoma): > 100 µM
- TGI (MALME-3M melanoma): > 100 µM
- TGI (SR leukemia): > 100 µM
